SMILES strings stand for the structures. Where two headings read alike, the source gives them in different places. Bounds are passed on as bounds.

The target of one data set is T1, human FXIa (Homo sapiens, UniProt P03951).
T1 construct: purchased Haematologic Technologies, Essex Junction, VT, USA
The experiment in a line: Inhibition of FXIa in vitro (chromogenic substrate assay). The class given is biochemical. How it is done:
The negative controlwas composed of the same mixed solutions except replacing test compound with DMSO. […] The IC50 was calculated by IBM SPSS Statistics 22.0 (IBM Inc., North Castle, NY, USA) and the Probit function in it. IC50 values were converted to Ki values by the followingrelationship:Ki = IC50/(1 + [S]/Km)

[1] abbreviates: human FXIa, chromogenic substrate BIOPHEN CS-21(66), 37 °C, pH 7.4, Ki = IC50/(1 + [S]/Km), read-out: Ki.
Setting [2] is: Table 1 values, read-out: FXIa inhibitory potency (Ki).

T1 sequence (P03951 388-625 limits assumed): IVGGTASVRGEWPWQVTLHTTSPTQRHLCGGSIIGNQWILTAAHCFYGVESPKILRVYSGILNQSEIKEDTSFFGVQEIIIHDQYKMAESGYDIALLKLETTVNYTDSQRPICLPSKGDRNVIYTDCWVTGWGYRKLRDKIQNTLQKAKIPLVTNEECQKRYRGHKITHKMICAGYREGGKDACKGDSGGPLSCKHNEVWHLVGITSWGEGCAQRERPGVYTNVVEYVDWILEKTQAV
T1 sequence (P03951 19-387 partner limits assumed): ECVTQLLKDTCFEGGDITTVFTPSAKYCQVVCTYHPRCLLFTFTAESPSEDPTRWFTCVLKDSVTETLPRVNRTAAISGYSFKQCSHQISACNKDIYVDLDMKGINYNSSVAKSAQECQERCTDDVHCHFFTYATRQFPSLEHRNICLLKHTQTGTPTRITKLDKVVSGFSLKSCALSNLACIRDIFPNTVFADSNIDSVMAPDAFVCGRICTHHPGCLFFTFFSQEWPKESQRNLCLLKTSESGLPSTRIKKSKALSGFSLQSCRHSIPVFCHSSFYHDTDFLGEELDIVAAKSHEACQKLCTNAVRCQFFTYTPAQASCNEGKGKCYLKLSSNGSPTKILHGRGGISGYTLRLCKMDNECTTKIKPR

Take `O=C(N[C@@H](Cc1ccc(N2CCOCC2=O)cc1)C(=O)Nc1ccc2[nH]c(C(=O)O)cc2c1)c1cc(-c2cccc(Cl)c2F)[nH]n1` [Compound 7zc, (S)-5-(2-(5-(3-Chloro-2-fluorophenyl)-1H-pyrazole-3-carboxamido)-3-(4-(3-oxomorpholino)phenyl)-propanamido)-1H-indole-2-carboxylic acid]: the melting point is 200 to 202 °C (dec.). Moreover, the inhibition constant (Ki) at human FXIa (setting [1]) came out at 4.82 µM.
The like results for `O=C(O)c1ccc(NC(=O)[C@H](Cc2ccccc2)NC(=O)c2cc(-c3ccccc3)[nH]n2)cc1` [Compound 7b, (S)-4-(3-Phenyl-2-(5-phenyl-1H-pyrazole-3-carboxamido)propanamido)benzoic acid] were, in that order, 137 to 139 °C (dec.) and more than 84.5 µM.
As for `O=C(O)c1cc2cc(NC(=O)[C@H](Cc3ccccn3)NC(=O)c3cc(-c4cccc(Cl)c4F)n[nH]3)ccc2[nH]1` [Compound 7w, (S)-5-(2-(3-(3-Chloro-2-fluorophenyl)-1H-pyrazole-5-carboxamido)-3-(pyridin-2-yl)propanamido)-1H-indole-2-carboxylic acid], the melting point was 192 to 194 °C (dec.). At human FXIa (setting [2]), the inhibition constant (Ki) came to 8.99 µM.
For the compound `O=C(O)c1cc2cc(NC(=O)[C@H](Cc3cccnc3)NC(=O)c3cc(-c4cccc(Cl)c4F)n[nH]3)ccc2[nH]1` [Compound 7v, (S)-5-(2-(3-(3-Chloro-2-fluorophenyl)-1H-pyrazole-5-carboxamido)-3-(pyridin-3-yl)propanamido)-1H-indole-2-carboxylic acid], the melting point was 175 to 177 °C (dec.). Besides, on human FXIa (setting [2]), the inhibition constant Ki was determined as 3.52 µM.
For the compound `O=C(O)c1ccc(NC(=O)[C@H](Cc2ccccc2)NC(=O)c2cc(-c3c(F)cc(Cl)cc3F)[nH]n2)cc1` [Compound 7l, (S)-4-(2-(5-(4-Chloro-2,6-difluorophenyl)-1H-pyrazole-3-carboxamido)-3-phenylpropanamido)benzoic acid], the melting point is 123 to 125 °C (dec.). For the same compound, at human FXIa (setting [1]), the Ki was more than 84.5 µM.
For `O=C(O)c1ccc(NC(=O)[C@H](Cc2ccccc2)NC(=O)c2cc(-c3ccccc3Cl)[nH]n2)cc1` [Compound 7d, (S)-4-(2-(5-(2-Chlorophenyl)-1H-pyrazole-3-carboxamido)-3-phenylpropanamido)benzoic acid], in that order: 92 to 94 °C (dec.) and more than 84.5 µM.
For `Nc1ccc(C[C@H](NC(=O)c2cc(-c3cccc(Cl)c3F)[nH]n2)C(=O)Nc2ccc3[nH]c(C(=O)O)cc3c2)cc1` [Compound 7z, (S)-5-(3-(4-Aminophenyl)-2-(5-(3-chloro-2-fluorophenyl)-1H-pyrazole-3-carboxamido)propanamido)-1H-indole-2-carboxylic acid], in that order: 209 to 211 °C (dec.) and 4.1 µM.
The like results for `O=C(O)c1ccc(NC(=O)[C@H](Cc2ccccc2)NC(=O)c2cc(-c3c(F)cccc3F)[nH]n2)cc1` [Compound 7j, (S)-4-(2-(5-(2,6-Difluorophenyl)-1H-pyrazole-3-carboxamido)-3-phenylpropanamido)benzoic acid] were, in that order, 205 to 207 °C (dec.) and more than 84.5 µM.
Take `Cc1c(C(=O)N[C@@H](Cc2ccccc2)C(=O)Nc2ccc(C(=O)O)cc2)n[nH]c1-c1cccc(Cl)c1` [Compound 7m, (S)-4-(2-(5-(3-Chlorophenyl)-4-methyl-1H-pyrazole-3-carboxamido)-3-phenylpropanamido)benzoic acid]: the melting point is 164 to 166 °C (dec.). In addition, the Ki on human FXIa (setting [1]) turned out to be 37.1 µM.
The like results for `CCc1c(C(=O)N[C@@H](Cc2ccccc2)C(=O)Nc2ccc(C(=O)O)cc2)n[nH]c1-c1cccc(Cl)c1` [Compound 7n, (S)-4-(2-(5-(3-Chlorophenyl)-4-ethyl-1H-pyrazole-3-carboxamido)-3-phenylpropanamido)benzoic acid] were, in that order, 126 to 128 °C (dec.) and more than 84.5 µM.
For `O=C(O)c1ccc(NC(=O)[C@H](Cc2ccccc2)NC(=O)c2cc(-c3cccc(Cl)c3)[nH]n2)cc1` [Compound 7a, (S)-4-(2-(5-(3-Chlorophenyl)-1H-pyrazole-3-carboxamido)-3-phenylpropanamido)benzoic acid], in that order: 147 to 149 °C (dec.) and 46.7 µM.
On to `O=C(O)c1cc2cc(NC(=O)[C@H](Cc3ccncc3)NC(=O)c3cc(-c4cccc(Cl)c4F)n[nH]3)ccc2[nH]1` [Compound 7u, (S)-5-(2-(3-(3-Chloro-2-fluorophenyl)-1H-pyrazole-5-carboxamido)-3-(pyridin-4-yl)propanamido)-1H-indole-2-carboxylic acid], for which the melting point was 199 to 201 °C (dec.). The inhibition constant Ki on human FXIa (setting [2]) is 13.3 µM.
Regarding `O=C(O)c1ccc(NC(=O)[C@H](Cc2ccccc2)NC(=O)c2cc(-c3ccc(Cl)cc3F)[nH]n2)cc1` [Compound 7g, (S)-4-(2-(5-(4-Chloro-2-fluorophenyl)-1H-pyrazole-3-carboxamido)-3-phenylpropanamido)benzoic acid], the melting point was 143 to 145 °C (dec.). Besides, the Ki at human FXIa (setting [1]) was more than 84.5 µM.
As to `O=C(O)c1cc2cc(NC(=O)[C@H](Cc3ccc(F)cc3)NC(=O)c3cc(-c4cccc(Cl)c4F)n[nH]3)ccc2[nH]1` [Compound 7s, (S)-5-(2-(3-(3-Chloro-2-fluorophenyl)-1H-pyrazole-5-carboxamido)-3-(4-fluorophenyl)propanamido)-1H-indole-2-carboxylic acid], the melting point is 186 to 188 °C (dec.). At human FXIa (setting [2]), the Ki is 0.93 µM.
As to `O=C(O)c1ccc(NC(=O)[C@H](Cc2ccccc2)NC(=O)c2cc(-c3ccccc3F)[nH]n2)cc1` [Compound 7c, (S)-4-(2-(5-(2-Fluorophenyl)-1H-pyrazole-3-carboxamido)-3-phenylpropanamido)benzoic acid], the melting point was 86 to 88 °C (dec.). Moreover, at human FXIa (setting [1]), the inhibitory constant (Ki) was more than 84.5 µM.
`O=C(O)c1cc2cc(NC(=O)[C@H](Cc3cccc(F)c3)NC(=O)c3cc(-c4cccc(Cl)c4F)n[nH]3)ccc2[nH]1` [Compound 7t, (S)-5-(2-(3-(3-Chloro-2-fluorophenyl)-1H-pyrazole-5-carboxamido)-3-(3-fluorophenyl)propanamido)-1H-indole-2-carboxylic acid]: the melting point was 174 to 176 °C (dec.). The Ki at human FXIa (setting [2]) was found to be 1.66 µM.
In the case of `CC(=O)N1CCN(C(=O)C[C@H](NC(=O)c2cc(-c3cccc(Cl)c3F)[nH]n2)C(=O)Nc2ccc3[nH]c(C(=O)O)cc3c2)CC1` [Compound 7x, (S)-5-(4-(4-Acetylpiperazin-1-yl)-2-(5-(3-chloro-2-fluorophenyl)-1H-pyrazole-3-carboxamido)-4-oxobutanamido)-1H-indole-2-carboxylic acid], on human FXIa (setting [2]), the inhibitory constant (Ki) was determined as 81.2 µM.
As for `Cc1c(C(=O)N[C@@H](Cc2ccccc2)C(=O)Nc2ccc3[nH]c(C(=O)O)cc3c2)n[nH]c1-c1cccc(Cl)c1` [Compound 7q, (S)-5-(2-(3-(3-Cchlorophenyl)-4-methyl-1H-pyrazole-5-carboxamido)-3-phenylpropanamido)-1H-indole-2-carboxylic acid], the melting point was 154 to 156 °C (dec.). On human FXIa (setting [1]), the inhibitory constant (Ki) was 8.94 µM.
The like results for `O=C(O)c1ccc(NC(=O)[C@H](Cc2ccccc2)NC(=O)c2cc(-c3cccc(Cl)c3F)[nH]n2)cc1` [Compound 7f, (S)-4-(2-(5-(3-Chloro-2-fluorophenyl)-1H-pyrazole-3-carboxamido)-3-phenylpropanamido)benzoic acid] were, in that order, 185 to 187 °C (dec.) and 29.3 µM.

As a reminder, the Ki is a measure of affinity in units of concentration, obtained from inhibition or displacement. As usually defined, the melting point is the temperature of the solid-liquid transition.
